Measurements as given in ChEMBL document CHEMBL1148245 (Bioorg Med Chem Lett, 2004).

What was measured:
CYP3A4 = assay: CYP3A4 metabolism half-life (t1/2); conditions: human
[1] = biological target: T1, 5-hydroxytryptamine receptor 1A (Homo sapiens, UniProt P08908); assay: In vitro binding affinity against 5-hydroxytryptamine 1A receptor using [3H]8-OH-DPAT in human CYP3A4 assay
T1 sequence (P08908 whole entry): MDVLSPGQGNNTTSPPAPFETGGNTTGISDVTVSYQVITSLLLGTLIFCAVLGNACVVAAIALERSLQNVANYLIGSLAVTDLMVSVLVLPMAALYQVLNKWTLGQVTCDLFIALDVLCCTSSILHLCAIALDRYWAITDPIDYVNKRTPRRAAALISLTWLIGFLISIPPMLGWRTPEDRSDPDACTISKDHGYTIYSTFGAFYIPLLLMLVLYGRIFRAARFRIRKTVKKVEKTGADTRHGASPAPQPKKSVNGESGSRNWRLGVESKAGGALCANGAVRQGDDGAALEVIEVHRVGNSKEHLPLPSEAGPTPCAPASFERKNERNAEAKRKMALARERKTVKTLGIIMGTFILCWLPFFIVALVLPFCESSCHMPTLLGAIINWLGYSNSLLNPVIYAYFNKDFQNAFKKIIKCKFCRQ

Structure (SMILES)	half-life (CYP3A4)	IC50 [1]
O=C1CC2(CCCC2)CC(=O)N1CCC(O)CN1CCN(c2ncccn2)CC1 (stereo unspecified)	10.2 min	840 nM
O=C1CC2(CCCC2)CC(=O)N1CCC(O)CN1CCN(c2cnccn2)CC1 (stereo unspecified)	9.6 min	> 1000 nM
COc1ccc(N2CCN(CCCCN3C(=O)CC4(CCCC4)CC3=O)CC2)cc1	21.1 min	930 nM
CC(C)(CCN1C(=O)CC2(CCCC2)CC1=O)CN1CCN(c2ncccn2)CC1	2.9 min	710 nM
O=C1CC2(CCCC2)CC(=O)N1CCCCN1CCN(c2cnccn2)CC1	5.5 min	460 nM
O=C1CC2(CCCC2)CC(=O)N1CCC(O)CN1CCN(c2ccc(F)cc2)CC1 (stereo unspecified)	3.8 min	69 nM
CC(CCCN1C(=O)CC2(CCCC2)CC1=O)N1CCN(c2ccc(F)cc2)CC1 (stereo unspecified)	2.4 min	99 nM
O=C1c2ccccc2C(=O)N1CCCCN1CCN(c2ncc(F)cn2)CC1	20.4 min	440 nM
CC(CCCN1C(=O)c2ccccc2C1=O)N1CCN(c2ncc(F)cn2)CC1 (stereo unspecified)	18.2 min	210 nM
CC1(C)CC(=O)N(CCCCN2CCN(c3ncc(F)cn3)CC2)C(=O)C1	78.3 min	205 nM
CC(CCCN1C(=O)CC(C)(C)CC1=O)N1CCN(c2ncc(F)cn2)CC1 (stereo unspecified)	40.1 min	87 nM
CC(O)(CCN1C(=O)CC2(CCCC2)CC1=O)CN1CCN(c2ncccn2)CC1 (stereo unspecified)	8.6 min	1460 nM
CC1(C)CC(=O)N(CCCCN2CCN(c3ncccn3)CC2)C(=O)C1 [GEPIRONE]	30.3 min	–

More lines, now with the values ahead:

half-life (CYP3A4)	IC50 [1]	Structure (SMILES)
5.1 min	2 nM	COc1ccccc1N1CCN(CCCCN2C(=O)CC3(CCCC3)CC2=O)CC1
26.8 min	60 nM	O=C1c2ccccc2C(=O)N1CCCCN1CCN(c2ncccn2)CC1
8 min	15 nM	O=C1CC2(CCCC2)CC(=O)N1CCCCN1CCN(c2ccccc2)CC1
3.8 min	4 nM	CC(CCCN1C(=O)CC2(CCCC2)CC1=O)N1CCN(c2ncccn2)CC1 (stereo unspecified)
52.3 min	63 nM	O=C1CC2(CCCC2)CC(=O)N1CCCCN1CCN(c2ncc(F)cn2)CC1
14.8 min	46 nM	CC(CCCN1C(=O)CC2(CCCC2)CC1=O)N1CCN(c2ncc(F)cn2)CC1 (stereo unspecified)
7.8 min	12 nM	COc1ccccc1N1CCN(CC(O)CCN2C(=O)CC3(CCCC3)CC2=O)CC1 (stereo unspecified)
3.2 min	64 nM	O=C1CC2(CCCC2)CC(=O)N1CCCCN1CCN(c2ccc(F)cc2)CC1
